In general, amount remaining refers to the share of the starting amount still present when the sample was taken.

“Also recorded” adds a separate entry of the source. Some results are limits rather than exact numbers.

Here are results for 3 compounds from patent publication US9738697B2 (Wisconsin Alumni Research Foundation, priority 2013, dated 2017).

The target of one series is T1, neprilysin (Homo sapiens, UniProt P08473).
T1 construct: purchased Reprokine; Ltd. RKP08473
Kind of series: Protease assay with neprilysin (HPLC). Particulars: 40 μg/mL neprilysin. Type of series: in vitro ADME.

In series [1] the target is T2, DPP-4 (Homo sapiens, UniProt P27487).
T2 construct: purchased EMD Biosciences 317640
As to the kind of experiment: Protease assay with DPP-4 (HPLC). Type of series: in vitro ADME. As to conditions: DPP-4 (isolated protease); TBS pH 8.0, 37° C.

Series [2] has as its target T3, chymotrypsin (Bos taurus, UniProt P00766).
T3 construct: purchased Promega V1062
Kind of series: Protease assay with chymotrypsin (HPLC). Type of series: in vitro ADME. Particulars: 50 μg/mL chymotrypsin. As to the method:
(§1) An HPLC method from the literature was used to assess protease action on selected compounds.^29,31 Two nmol of solid peptide was dissolved in 40 μL of TBS pH 8.0 (resulting concentration of peptide=40 μM) before protease was added. Chymotrypsin was purchased from Promega (Fitchburg, Wis.; catalog #V1062), and neprilysin was purchased from Reprokine. Ltd. (Valley Cottage, N.Y.; catalog #RKP08473); stock solutions of 250 μg/mL chymotrypsin and 200 μg/mL neprilysin in water were prepared. A 10 μL aliquot of protease stock solution was added to 40 μL of 40 μM peptide solution to begin the reaction. Periodically, a 10 μL aliquot of the solution was removed, and protease action was halted by adding this aliquot to 100 μL of 1% aqueous TFA solution. A portion (100 μL) of the quenched solution was injected onto an HPLC column using the conditions described under “Peptide Synthesis”, and peaks were analyzed using MALDI-TOF MS. The time course of peptide degradation was experimentally determined by integrating the area of each peak in a series of HPLC traces. The area percent of parent peptide (relative to the initial trace) was calculated for each trace and plotted in GraphPad Prism as an exponential decay to determine half-life values.
(§2) ID. […] Major backbone cut sites are indicated with double front slashes. […] Digestion occurs at three major cleavage sites. […] ID. NO: 7 with 50 μg/mL chymotrypsin in TBS pH 8.0 at room temperature. […] ID. NO: 9 with 50 μg/mL chymotrypsin in TBS pH 8.0 at room temperature. This peptide has seven substitutions, α→Aib.

For series [3], the system named is T4, chymotrypsin.
T4 construct: purchased Promega V1062
Kind of series: Protease assay with chymotrypsin (HPLC). Type of series: in vitro ADME. As to conditions: chymotrypsin (50 μg/mL) in TBS; 50 μg/mL chymotrypsin, TBS pH 8.0, room temperature, 60 seconds; read-out: peptide remaining after 60 seconds of digestion. As to the method:
as §1, §2

The subject of the next series is C57BL/6J mice. As to the kind of experiment: Glucose tolerance test (GTT) in mice. Type of series: in vivo, mouse. As to the method:
ID. NO: 7 was administered to mice by interperitoneal (i.p.) injection at a 1 mg/kg dose, or lower for SEQ. ID. NO: 7, using an injection volume of 10 mL/kg body mass. Each peptide was first dissolved in prefiltered DMSO at 10 mg/mL concentration, then diluted >20-fold with TBS buffer, pH 7.4 (final DMSO conc.=<5%). Glucose was administered by i.p. injection with a sterile-filtered 30% D-glucose-saline solution at a 1.5 g/kg dose using a 5 mL/kg injection volume.
Thirteen-week-old male C57BL/6J mice (The Jackson Laboratory) (n=4) were fasted overnight on wood chip bedding for 15 hours prior to the experiment. Blood glucose levels were monitored from a tail tip bleed using an ACCU-CHEK®-brand blood glucose meter (Roche Diagnostics, Indianapolis, Ind.). Fasting glucose levels were measured at 75 minutes prior to the glucose injection (t=−75 min), and the compound injection was performed 60 minutes prior to the glucose injection (t=−60 min). Glucose levels were measured immediately prior to the glucose injection (t=0 min) to assess any changes in the baseline glucose caused by peptide administration. Blood glucose levels were monitored at 30, 60, 90, and 120 minutes after injection of glucose.
Five hours after peptide injection, the mice received a second injection of 1.5 g/kg glucose. Blood glucose was monitored at 30 min after this second glucose injection. Mice were sacrificed by CO2 inhalation at the conclusion of the GTT.

In series [4] the test system is DPP-4. Kind of series: DPP-4 (EMD Biosciences; catalog #317640) in TBS buffer, pH 8.0. As to conditions: 37° C., up to seven (7) days.
Series [5] has as its system dipeptidyl peptidase-4 (DPP-4). Particulars: cited from earlier work.
The next series relates to neprilysin (NEP 24.11). Particulars: cited from earlier work.

T1 sequence (P08473 whole entry): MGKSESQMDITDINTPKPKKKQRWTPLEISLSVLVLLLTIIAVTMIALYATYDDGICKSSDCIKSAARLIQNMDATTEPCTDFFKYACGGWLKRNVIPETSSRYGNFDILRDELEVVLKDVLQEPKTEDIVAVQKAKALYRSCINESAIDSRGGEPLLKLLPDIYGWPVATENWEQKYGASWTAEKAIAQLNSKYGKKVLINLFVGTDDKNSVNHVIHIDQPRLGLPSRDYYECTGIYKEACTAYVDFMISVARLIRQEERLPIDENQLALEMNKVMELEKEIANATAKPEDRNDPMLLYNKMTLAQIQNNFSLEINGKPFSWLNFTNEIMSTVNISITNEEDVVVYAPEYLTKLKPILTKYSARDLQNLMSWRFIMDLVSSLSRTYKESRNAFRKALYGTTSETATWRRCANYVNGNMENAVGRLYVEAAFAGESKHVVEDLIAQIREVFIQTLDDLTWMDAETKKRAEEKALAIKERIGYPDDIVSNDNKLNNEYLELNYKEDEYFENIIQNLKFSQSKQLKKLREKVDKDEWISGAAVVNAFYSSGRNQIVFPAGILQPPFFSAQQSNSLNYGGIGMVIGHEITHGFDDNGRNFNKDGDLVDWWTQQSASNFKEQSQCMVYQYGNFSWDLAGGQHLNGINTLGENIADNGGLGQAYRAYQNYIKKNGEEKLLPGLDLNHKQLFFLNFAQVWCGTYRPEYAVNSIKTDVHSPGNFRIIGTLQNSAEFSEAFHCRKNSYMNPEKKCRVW
T2 sequence (P27487 whole entry): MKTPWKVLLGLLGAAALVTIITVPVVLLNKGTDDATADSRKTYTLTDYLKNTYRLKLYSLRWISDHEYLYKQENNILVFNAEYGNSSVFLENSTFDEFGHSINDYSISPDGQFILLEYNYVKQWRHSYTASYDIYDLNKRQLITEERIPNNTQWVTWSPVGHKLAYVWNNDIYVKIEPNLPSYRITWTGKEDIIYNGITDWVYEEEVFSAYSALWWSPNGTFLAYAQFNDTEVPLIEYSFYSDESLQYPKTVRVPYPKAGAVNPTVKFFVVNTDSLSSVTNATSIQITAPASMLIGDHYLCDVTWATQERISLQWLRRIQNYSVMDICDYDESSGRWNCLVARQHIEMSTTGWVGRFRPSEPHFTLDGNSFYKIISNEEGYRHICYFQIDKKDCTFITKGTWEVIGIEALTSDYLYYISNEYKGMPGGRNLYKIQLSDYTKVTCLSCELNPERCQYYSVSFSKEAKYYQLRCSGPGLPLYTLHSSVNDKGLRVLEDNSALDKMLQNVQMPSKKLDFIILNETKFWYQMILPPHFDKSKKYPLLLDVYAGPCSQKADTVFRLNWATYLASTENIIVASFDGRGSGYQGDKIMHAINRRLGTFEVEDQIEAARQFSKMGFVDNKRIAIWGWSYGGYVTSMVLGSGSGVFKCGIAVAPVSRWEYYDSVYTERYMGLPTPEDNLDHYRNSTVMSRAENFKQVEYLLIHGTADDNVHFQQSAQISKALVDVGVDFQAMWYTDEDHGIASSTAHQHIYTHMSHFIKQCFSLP

In the case of `CC[C@H](C)[C@H](NC(=O)[C@H](Cc1ccccc1)NC(=O)[C@H](CCC(=O)O)NC(=O)[C@H](CCCCN)NC(=O)[C@H](C)NC(=O)[C@H](C)NC(=O)[C@H](CCC(N)=O)NC(=O)CNC(=O)[C@H](CCC(=O)O)NC(=O)[C@H](CC(C)C)NC(=O)[C@H](Cc1ccc(O)cc1)NC(=O)[C@H](CO)NC(=O)[C@H](CO)NC(=O)[C@@H](NC(=O)[C@H](CC(=O)O)NC(=O)[C@H](CO)NC(=O)[C@@H](NC(=O)[C@H](Cc1ccccc1)NC(=O)[C@@H](NC(=O)CNC(=O)[C@H](CCC(=O)O)NC(=O)[C@H](C)NC(=O)[C@@H](N)Cc1c[nH]cn1)[C@@H](C)O)[C@@H](C)O)C(C)C)C(=O)N[C@@H](C)C(=O)N[C@@H](Cc1c[nH]c2ccccc12)C(=O)N[C@@H](CC(C)C)C(=O)N[C@H](C(=O)N[C@@H](CCCCN)C(=O)NCC(=O)N[C@@H](CCCNC(=N)N)C(=O)NCC(N)=O)C(C)C` [SEQ. ID. NO: 1], the “number of major cleavage sites, neprilysin” value on neprilysin (MALDI-TOF-MS) is listed as “five”. The half-life at 40 μM was 19.8 min on neprilysin (neprilysin (isolated protease), pH 8, 40 μM peptide, TBS pH 8.0, room temperature, read-out: half-life (t1/2) with neprilysin (converted)); 13.5 min at DPP-4 [1]; 0.317 min at chymotrypsin [2] (chymotrypsin (isolated protease), 40 μM peptide, TBS pH 8.0, room temperature, read-out: t1/2 with chymotrypsin (converted)). At chymotrypsin [2] (MALDI-TOF-MS), the “number of major cleavage sites, chymotrypsin” value is listed as “three”. Besides, the share remaining at 1 min, 40 μM in the series with chymotrypsin [3] was less than 25%. Moreover, the “Average Blood Glucose Level” value in the series on C57BL/6J mice (1 mg/kg i.p., time 0.0 min) stood at 81.8 mg/dL; in the series with C57BL/6J mice (1 mg/kg i.p., time 30.0 min), 132.8 mg/dL; with C57BL/6J mice (1 mg/kg i.p., time 60.0 min), 99.3 mg/dL; in the series with C57BL/6J mice (1 mg/kg i.p., time 90.0 min), 74.8 mg/dL; with C57BL/6J mice (1 mg/kg i.p., time 120.0 min), 86.0 mg/dL; in the series with C57BL/6J mice (1 mg/kg i.p., time −60.0 min (peptide injection)), 108.0 mg/dL. Besides, in the series with C57BL/6J mice (1 mg/kg i.p., Table 7, 30 min after second glucose injection given five hours after peptide), the “Average Blood Glucose Level at 30 min (column head AUC)” value is on record as 250.5. The “glucose-lowering effect in GTT repeated 5 hours after agonist administration (in words)” value with C57BL/6J mice (1 mg/kg, 30 min after the second glucose challenge) is listed as “no significant difference”.

With H-HAEGTFTSDASXYLEXQAAXEFIXWLVZGRG-NH2, the not cleaved entry with DPP-4 [4] is recorded as “no cleavage was detected during seven (7) days”.

Take H-HAEGTFTSDVSSYLEGQAAKEFIAWLVKGRG-NH2: the cleaved bond entry in series [5] is on record as “cleaves after Ala8”; in the series with neprilysin (NEP 24.11), “Asp15-Val16; also recorded: cleaves after Ser18; also recorded: cleaves after Tyr19; also recorded: cleaves after Glu27; also recorded: cleaves after Phe28; also recorded: cleaves after Trp31”.
